This note sets out measurements from patent publication US7504432B2 (priority 2000, dated 2009).

The target in test [1] is T1, m2 muscarinic acetylcholine receptor (Homo sapiens, UniProt P08172).
T1 construct: purchased Receptor Biology, Inc; host or cells: CHO cells
T1 sequence (P08172 1-466): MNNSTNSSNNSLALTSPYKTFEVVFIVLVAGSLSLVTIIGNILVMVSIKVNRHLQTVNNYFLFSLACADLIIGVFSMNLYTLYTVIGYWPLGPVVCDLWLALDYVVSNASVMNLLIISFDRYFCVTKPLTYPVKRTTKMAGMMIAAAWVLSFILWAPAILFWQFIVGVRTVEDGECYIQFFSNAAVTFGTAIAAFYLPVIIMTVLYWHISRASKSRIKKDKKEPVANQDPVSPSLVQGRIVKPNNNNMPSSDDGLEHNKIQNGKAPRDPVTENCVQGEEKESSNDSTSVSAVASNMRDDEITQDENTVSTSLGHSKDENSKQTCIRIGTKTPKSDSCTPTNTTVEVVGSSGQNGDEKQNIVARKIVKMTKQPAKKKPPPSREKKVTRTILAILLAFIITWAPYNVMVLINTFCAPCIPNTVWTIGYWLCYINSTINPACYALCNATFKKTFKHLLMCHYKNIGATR
The experiment in a line: biochemical. In kind it is binding.

Test [2] has as its target T2, m3 muscarinic acetylcholine receptor (Homo sapiens, UniProt P20309).
T2 construct: purchased Receptor Biology, Inc; host or cells: CHO cells
The experiment in a line: biochemical. In kind it is binding.

Test [3] addresses T3, M2 receptor in isolated rat right atrium (Rattus norvegicus, UniProt P10980).
T3 construct: A male SD strain rat (weighing 300-500 g) was killed by exsanguination, and the right atrium was isolated; from tissue; host or cells: isolated right atrium of male SD rat
T3 sequence (P10980 1-466): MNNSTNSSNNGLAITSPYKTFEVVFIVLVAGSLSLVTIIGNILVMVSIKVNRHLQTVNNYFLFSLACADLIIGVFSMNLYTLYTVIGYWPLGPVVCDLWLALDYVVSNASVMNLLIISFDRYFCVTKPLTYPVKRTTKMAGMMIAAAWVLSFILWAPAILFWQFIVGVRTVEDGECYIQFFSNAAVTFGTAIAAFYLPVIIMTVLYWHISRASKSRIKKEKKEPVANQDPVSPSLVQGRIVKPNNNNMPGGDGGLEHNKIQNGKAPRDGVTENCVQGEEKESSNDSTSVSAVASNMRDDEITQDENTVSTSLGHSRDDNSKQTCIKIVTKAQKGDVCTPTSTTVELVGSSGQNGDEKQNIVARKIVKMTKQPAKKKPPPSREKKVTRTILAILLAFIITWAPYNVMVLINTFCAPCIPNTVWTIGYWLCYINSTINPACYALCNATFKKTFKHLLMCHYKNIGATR
The experiment in a line: biochemical.

The target in test [4] is T4, airway M3 receptor in isolated rat trachea (Rattus norvegicus, UniProt P08483).
T4 construct: A male SD strain rat (weighing 300-500 g) was killed by exsanguination, and the trachea was isolated; from tissue; host or cells: isolated trachea of male SD rat
T4 sequence (P08483 whole entry): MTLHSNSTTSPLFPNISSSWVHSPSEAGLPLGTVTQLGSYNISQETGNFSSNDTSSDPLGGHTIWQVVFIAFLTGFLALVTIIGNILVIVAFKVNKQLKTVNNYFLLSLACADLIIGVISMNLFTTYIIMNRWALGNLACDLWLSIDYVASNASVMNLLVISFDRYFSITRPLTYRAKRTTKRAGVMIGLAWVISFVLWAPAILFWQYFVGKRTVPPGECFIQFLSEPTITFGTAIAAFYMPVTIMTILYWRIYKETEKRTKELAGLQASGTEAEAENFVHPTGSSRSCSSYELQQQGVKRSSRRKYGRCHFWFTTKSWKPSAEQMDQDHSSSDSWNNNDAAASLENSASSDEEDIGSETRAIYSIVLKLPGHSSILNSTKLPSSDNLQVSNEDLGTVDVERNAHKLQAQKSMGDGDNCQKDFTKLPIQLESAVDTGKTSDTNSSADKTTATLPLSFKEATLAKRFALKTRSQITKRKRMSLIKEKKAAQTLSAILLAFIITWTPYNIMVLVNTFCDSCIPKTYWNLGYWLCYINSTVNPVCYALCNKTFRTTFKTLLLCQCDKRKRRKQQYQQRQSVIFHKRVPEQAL
Put plainly: biochemical.

In a further test the target is T5, muscarinic M3 receptor (Canis lupus familiaris, UniProt A0A8I3N190).
T5 construct: 12-36 months old male beagle dogs (weighing 10-15 kg) were used; from tissue; host or cells: anesthetized male beagle dogs, airway in vivo
T5 sequence (A0A8I3N190 1-590): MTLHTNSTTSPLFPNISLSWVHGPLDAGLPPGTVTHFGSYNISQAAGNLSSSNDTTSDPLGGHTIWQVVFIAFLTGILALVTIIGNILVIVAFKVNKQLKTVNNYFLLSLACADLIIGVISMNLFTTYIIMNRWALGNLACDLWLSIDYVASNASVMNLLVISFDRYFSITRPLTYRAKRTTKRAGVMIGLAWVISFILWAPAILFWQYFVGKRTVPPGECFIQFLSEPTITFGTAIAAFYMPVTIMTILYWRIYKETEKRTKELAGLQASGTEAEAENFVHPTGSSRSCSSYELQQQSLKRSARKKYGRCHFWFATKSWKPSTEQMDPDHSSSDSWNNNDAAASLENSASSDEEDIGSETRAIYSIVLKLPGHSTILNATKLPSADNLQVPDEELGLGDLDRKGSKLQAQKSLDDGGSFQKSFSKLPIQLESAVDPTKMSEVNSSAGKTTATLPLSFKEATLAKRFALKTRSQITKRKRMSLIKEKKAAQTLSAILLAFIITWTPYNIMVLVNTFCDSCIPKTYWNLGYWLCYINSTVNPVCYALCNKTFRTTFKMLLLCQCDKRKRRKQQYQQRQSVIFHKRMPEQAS
As to conditions: dog, in vivo.

T2 sequence (P20309 whole entry): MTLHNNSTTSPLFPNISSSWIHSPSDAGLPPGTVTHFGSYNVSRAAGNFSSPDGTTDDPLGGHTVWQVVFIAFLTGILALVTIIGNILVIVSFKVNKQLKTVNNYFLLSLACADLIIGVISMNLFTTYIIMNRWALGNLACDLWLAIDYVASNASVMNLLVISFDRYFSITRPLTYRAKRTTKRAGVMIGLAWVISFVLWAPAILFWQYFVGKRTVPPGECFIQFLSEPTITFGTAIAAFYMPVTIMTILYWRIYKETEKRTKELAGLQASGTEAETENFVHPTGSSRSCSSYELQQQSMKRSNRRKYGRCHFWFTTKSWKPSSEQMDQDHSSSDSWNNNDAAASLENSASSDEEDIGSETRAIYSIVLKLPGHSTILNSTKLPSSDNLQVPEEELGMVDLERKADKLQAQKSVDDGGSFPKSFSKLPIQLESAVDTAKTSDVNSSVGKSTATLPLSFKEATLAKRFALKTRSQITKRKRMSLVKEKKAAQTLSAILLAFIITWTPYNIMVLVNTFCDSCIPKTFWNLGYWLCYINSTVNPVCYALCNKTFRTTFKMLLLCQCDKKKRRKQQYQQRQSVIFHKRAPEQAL

`N=CN1CCC(CCOC(=O)[C@](O)(c2ccccc2)[C@@H]2CCC(F)(F)C2)CC1` [Example 54, 2-(1-(Iminomethyl)piperidin-4-yl)ethyl (2R)-2-((1R)-3,3-difluorocyclopentyl)-2-hydroxy-2-phenylethanoate] registered a Ki in test [1] of 4.76 nM. Further, in test [2], the affinity, expressed as Ki, was 0.079 nM and the “m2/m3 (ratio of Ki)” value is on record as 60.2. Also, in test [3], the Kb stood at 10.6 nM. This molecule also gave a Kb in test [4] of 0.21 nM. In addition, in test [4] (rat, right atrium / trachea), the “M2/M3 (ratio of KB)” value is 50. Further, at muscarinic M3 receptor, the “Shift Value 5 minutes after” value was >30, the “Shift Value 4 hours after” value is >30 and the “Shift Value 24 hours after” value came out at 3.9.
